# Laboratory results taken from patent EP0292365A2, “4-Amino-5,8-quinazolindione derivatives, process for their preparation and pharmaceutical compositions containing them” (CENTRE NATIONAL DE LA RECHERCHE SCIENTIFIQUE, priority 1987, dated 1988).
# Legend:
# réticulosarcome M 5076 = assay: First trials on reticulosarcoma M 5076; format: in vivo; details: souris; doses infratoxique; premiers essais
# cellules de lignée MCF-7 = assay: Effect on in vitro cell growth, MCF-7 line (Feulgen staining, automated scanning microscopy); format: cell-based, humaine; details: for nombre de cellules observées par champ de microscope: MCF-7
# Experimental: Les cellules tumorales en croissance exponentielle sont ensemencées (10.000 cellules/ml) dans des boîtes à Petri contenant au fond de la boîte un couvre-objet (18 x 18 mm) et 3 ml de MEM (MEM = milieu essentiel minimum) + 5 % FCS (FCS = serum de veau fetal) (v/v). Après 24 heures d'incubation, quand les cellules sont bien attachées au fond de la boîte, le milieu est remplacé par MEM expérimental contenant 5 % FCS (v/v) et enrichi, par exemple de : • a) 3 ml du milieu (MEM + 5 % FCS) = témoins • b) 3 ml du milieu contenant une dose élevée du composé à tester : 10 µg/ml : (M) • c) milieu contenant une faible dose du composé à tester : 0.01 µg/ml (f) respectivement aux jours 1, 2, 3 et 4 après addition du milieu expérimental dans les boîtes de Petri. Trois couvre-objets sont fixés pour chaque condition expérimentale : éthanol 95° (75 v), formol neutre à 40 % (20 v), acide acétique (5 v), pendant 10 minutes. Les cellules témoins cultivées dans le milieu expérimental sans le produit à tester sont fixées au même moment. A la fin de la fixation, les couvre-objets sont retournés et montés sur des lames histologiques à l'aide de produit commercialisé sous la marque DPX par la Société British Drug House et conservés à l'abri de la lumière et à 4° en attendant d'être colorés.
# (§1) Les lames avec les couvre-objets sont colorées par une réaction de Feulgen modifiée. Toutes les lames d'une condition expérimentale sont conditionnées par le réactif de Feulgen en même temps, pendant une heure, après hydrolyse dans un milieu HCI 6N pendant une heure à 20° C. Les préparations cellulaires sont ensuite conservées à l'abri de la lumière et à 4°C en attendant l'analyse.
# (§2) Grâce à un système d'analyse microscopique à balayage automatique, on détermine l'effet de la drogue sur la croissance cellulaire, au cours du temps, sur deux lignées cellulaires tumorales d'origine humaine : la lignée MCF-7 d'origine mammaire et la lignée HBL (mélanome malin).
# On a représenté dans le tableau C les résultats relatifs à l'action du composé 63 sur la croissance des cellules de lignée MCF-7 et dans le tableau C BIS, les résultats relatifs à l'action du composé 63 sur la croissance des cellules de lignée HBL. Ces résultats montrent le nombre de cellules survivant au traitement après 1, 2, 3 et 4 jours d'incubation et à trois doses différentes (10 µg/ml, 1 µg/ml et 0,1 µg/ml).
# Chaque chiffre correspond au nombre de cellules observées par champ de microscope.
# lignée HBL = assay: Effect on cell cycle phases (cell kinetics parameters), HBL line; format: cell-based, humaine; details: for G2±M / GO-G1 / S / G2+M / G1-GO: HBL
# Experimental: Les cellules tumorales en croissance exponentielle sont ensemencées (10.000 cellules/ml) dans des boîtes à Petri contenant au fond de la boîte un couvre-objet (18 x 18 mm) et 3 ml de MEM (MEM = milieu essentiel minimum) + 5 % FCS (FCS = serum de veau fetal) (v/v). […] Trois couvre-objets sont fixés pour chaque condition expérimentale : éthanol 95° (75 v), formol neutre à 40 % (20 v), acide acétique (5 v), pendant 10 minutes. Les cellules témoins cultivées dans le milieu expérimental sans le produit à tester sont fixées au même moment. A la fin de la fixation, les couvre-objets sont retournés et montés sur des lames histologiques à l'aide de produit commercialisé sous la marque DPX par la Société British Drug House et conservés à l'abri de la lumière et à 4° en attendant d'être colorés.
# as §1, §2
# On a représenté sur le tableau D BIS les résultats relatifs aux effets du composé 63 au cours du temps sur les différentes phases du cycle cellulaire (lignée HBL) où il est possible d'observer le nombre de cellules survivant à chaque phase du cycle cellulaire.
# Dans les tableaux, GO-G1, S et G2 + M correspondent à des différentes phases de multiplication des cellules, telles qu'elles sont définies dans "Cell proliferation kinetics of MCF-7 human mammary carcinome cells in culture and effects of tamoxifen on exponentially growing and plateau - phase cells" R.L. Sutherland, R.E. Hall and I.W. Taylor, Cancer Research 43, pp. 3998 à 4006, 1983.
smiles,measurement,setting,value
CN(C)CCCNc1ncnc2c1C(=O)C(N1CC1)=C(N1CC1)C2=O [composé 63],activité sur le réticulosarcome M 5076,réticulosarcome M 5076,nette activité
same,nombre de cellules observées par champ de microscope,"cellules de lignée MCF-7; 0.1µg/ml (f), 1j",174± 38 ns
same,nombre de cellules observées par champ de microscope,"cellules de lignée MCF-7; 0.1µg/ml (f), 2j",92± 21
same,nombre de cellules observées par champ de microscope,"cellules de lignée MCF-7; 0.1µg/ml (f), 3j",38± 6
same,nombre de cellules observées par champ de microscope,"cellules de lignée MCF-7; 0.1µg/ml (f), 4j",30± 4
same,nombre de cellules observées par champ de microscope,"cellules de lignée MCF-7; 1µg/ml (M), 1j",133± 7 ns
same,nombre de cellules observées par champ de microscope,"cellules de lignée MCF-7; 1µg/ml (M), 2j",85± 8
same,nombre de cellules observées par champ de microscope,"cellules de lignée MCF-7; 1µg/ml (M), 3j",58± 7
same,nombre de cellules observées par champ de microscope,"cellules de lignée MCF-7; 1µg/ml (M), 4j",63± 8
same,nombre de cellules observées par champ de microscope,"cellules de lignée MCF-7; 10µg/ml (F), 1j",128± 11 ns
same,nombre de cellules observées par champ de microscope,"cellules de lignée MCF-7; 10µg/ml (F), 2j",93± 4
same,nombre de cellules observées par champ de microscope,"cellules de lignée MCF-7; 10µg/ml (F), 3j",87± 20
same,nombre de cellules observées par champ de microscope,"cellules de lignée MCF-7; 10µg/ml (F), 4j",88± 18
same,croissance des cellules MCF-7,"cellules de lignée MCF-7; dose-indépendante, summary of tableau C",ralentit fortement la croissance
same,G2±M,"lignée HBL; F (10µg/ml), 1 jour",14.0 ± 0.1 ns
same,GO-G1,"lignée HBL; F (10µg/ml), 1 jour",62.7 ± 2.0 ns
same,S,"lignée HBL; F (10µg/ml), 1 jour",23.3 ± 2.0 ns
same,G2+M,"lignée HBL; F (10µg/ml), 2 jours",13.3 ± 2.2 ns
same,GO-G1,"lignée HBL; F (10µg/ml), 2 jours",58.7 ± 0.9
same,S,"lignée HBL; F (10µg/ml), 2 jours",28.0 ± 2.1
same,G2+M,"lignée HBL; F (10µg/ml), 3 jours",12.3 ± 0.7 ns
same,GO-G1,"lignée HBL; F (10µg/ml), 3 jours",59.7 ± 0.9
same,S,"lignée HBL; F (10µg/ml), 3 jours",28.0 ± 1.0
same,G1-GO,"lignée HBL; F (10µg/ml), 4 jours",59.0 ± 1.5 ns
same,G2+M,"lignée HBL; F (10µg/ml), 4 jours",12.3 ± 1.9 ns
same,S,"lignée HBL; F (10µg/ml), 4 jours",28.7 ± 0.7 ns
same,G2±M,"lignée HBL; M (1µg/ml), 1 jour",12.7 ± 1.5 ns
same,GO-G1,"lignée HBL; M (1µg/ml), 1 jour",62.3 ± 1.9 ns
same,S,"lignée HBL; M (1µg/ml), 1 jour",25.0 ± 3.6 ns
same,G2+M,"lignée HBL; M (1µg/ml), 2 jours",13.7 ± 1.2 ns
same,GO-G1,"lignée HBL; M (1µg/ml), 2 jours",58.3 ± 1.3
same,S,"lignée HBL; M (1µg/ml), 2 jours",28.0 ± 1.0
same,G2+M,"lignée HBL; M (1µg/ml), 3 jours",15.3 ± 1.3 ns
same,GO-G1,"lignée HBL; M (1µg/ml), 3 jours",56.7 ± 1.8
same,S,"lignée HBL; M (1µg/ml), 3 jours",28.0 ± 3.1
same,G1-GO,"lignée HBL; M (1µg/ml), 4 jours",58.0 ± 0.6 ns
same,G2+M,"lignée HBL; M (1µg/ml), 4 jours",16.0 ± 2.1
same,S,"lignée HBL; M (1µg/ml), 4 jours",26.0 ± 1.7 ns
same,G2±M,"lignée HBL; f (0.1µg/ml), 1 jour",12.7 ± 1.2 ns
same,GO-G1,"lignée HBL; f (0.1µg/ml), 1 jour",56.0 ± 1.5
same,S,"lignée HBL; f (0.1µg/ml), 1 jour",31.3 ± 2.6
same,G2+M,"lignée HBL; f (0.1µg/ml), 2 jours",10.3 ± 2.2 ns
same,GO-G1,"lignée HBL; f (0.1µg/ml), 2 jours",53.0 ± 1.5
same,S,"lignée HBL; f (0.1µg/ml), 2 jours",36.7 ± 3.7
same,G2+M,"lignée HBL; f (0.1µg/ml), 3 jours",11.0 ± 0.6 ns
same,GO-G1,"lignée HBL; f (0.1µg/ml), 3 jours",53.7 ± 1.3
same,S,"lignée HBL; f (0.1µg/ml), 3 jours",35.3 ± 0.9
same,G1-GO,"lignée HBL; f (0.1µg/ml), 4 jours",53.3 ± 1.2
same,G2+M,"lignée HBL; f (0.1µg/ml), 4 jours",14.0 ± 2.3 ns
same,S,"lignée HBL; f (0.1µg/ml), 4 jours",32.7 ± 3.5 ns
same,effet sur le cycle cellulaire (HBL),lignée HBL; summary of tableau D BIS,bloque les cellules en phase S
